# Results taken from ChEMBL document CHEMBL4414608, “Secophragmalin-Type Limonoids from Trichilia connaroides: Isolation, Semisynthesis, and Their Cytotoxic Activities” (J Nat Prod, 2019).
# Active and inactive are the calls of the source. The calls are words filed in the database; no cut-off is given here.
# Legend:
# [1] = tested on: HeLa; assay: Cytotoxicity against human HeLa cells assessed as cell growth inhibition measured after 24 hrs by MTT assay; format: functional, cell-based
# [2] = tested on: DU-145; assay: Induction of apoptosis in human DU145 cells assessed as late apoptotic cells at 4.8 uM measured after 24 hrs by Annexin-V/FITC and propidium iodide staining based flow cytometry (reference value: 1.49 %); format: functional
# [3] = tested on: DU-145; assay: Induction of apoptosis in human DU145 cells assessed as live cells at 4.8 uM measured after 24 hrs by Annexin-V/FITC and propidium iodide staining based flow cytometry (reference value: 95.62 %); format: functional
# [4] = tested on: SK-OV-3; assay: Cytotoxicity against human SKOV3 cells assessed as cell growth inhibition measured after 24 hrs by MTT assay; format: functional, cell-based; details: SK-OV-3, 24 h
# [5] = tested on: DU-145; assay: Cell cycle arrest in human DU145 cells assessed as accumulation at G2/M phase at 4.8 uM measured after 24 hrs by RNase A/propidium iodide staining based flow cytometry analysis; format: functional
# [6] = tested on: DU-145; assay: Cytotoxicity against human DU145 cells assessed as cell growth inhibition measured after 24 hrs by MTT assay; format: functional, cell-based; details: DU-145, 24 h
# [7] = tested on: DU-145; assay: Induction of apoptosis in human DU145 cells assessed as early apoptotic cells at 4.8 uM measured after 24 hrs by Annexin-V/FITC and propidium iodide staining based flow cytometry (reference value: 0.25 %); format: functional
# [8] = tested on: A549; assay: Cytotoxicity against human A549 cells assessed as cell growth inhibition measured after 24 hrs by MTT assay; format: functional, cell-based; details: A549, 24 h
# [9] = tested on: DU-145; assay: Induction of apoptosis in human DU145 cells assessed as necrotic cells at 4.8 uM measured after 24 hrs by Annexin-V/FITC and propidium iodide staining based flow cytometry (reference value: 2.64 %); format: functional
# [10] = tested on: COLO 205; assay: Cytotoxicity against human COLO205 cells assessed as cell growth inhibition measured after 24 hrs by MTT assay; format: functional, cell-based; details: COLO 205, 24 h
# [11] = tested on: DU-145; assay: Induction of apoptosis in human DU145 cells assessed as early apoptotic cells at 7 uM measured after 24 hrs by Annexin-V/FITC and propidium iodide staining based flow cytometry (reference value: 0.25 %); format: functional
# [12] = tested on: DU-145; assay: Induction of apoptosis in human DU145 cells assessed as late apoptotic cells at 4.2 uM measured after 24 hrs by Annexin-V/FITC and propidium iodide staining based flow cytometry (reference value: 1.49 %); format: functional
# [13] = tested on: DU-145; assay: Induction of apoptosis in human DU145 cells assessed as live cells at 7 uM measured after 24 hrs by Annexin-V/FITC and propidium iodide staining based flow cytometry (reference value: 95.62 %); format: functional
# [14] = tested on: DU-145; assay: Induction of apoptosis in human DU145 cells assessed as early apoptotic cells at 4.2 uM measured after 24 hrs by Annexin-V/FITC and propidium iodide staining based flow cytometry (reference value: 0.25 %); format: functional
# [15] = tested on: DU-145; assay: Induction of apoptosis in human DU145 cells assessed as necrotic cells at 7 uM measured after 24 hrs by Annexin-V/FITC and propidium iodide staining based flow cytometry (reference value: 2.64 %); format: functional
# [16] = tested on: DU-145; assay: Induction of apoptosis in human DU145 cells assessed as increase in total apoptotic cells measured after 24 hrs by Annexin-V/FITC and propidium iodide staining based flow cytometry; format: functional, cell-based
# [17] = tested on: DU-145; assay: Cell cycle arrest in human DU145 cells assessed as accumulation at G0/G1 phase at 4.2 uM measured after 24 hrs by RNase A/propidium iodide staining based flow cytometry analysis (reference value: 51.75 %); format: functional
# [18] = tested on: DU-145; assay: Induction of apoptosis in human DU145 cells assessed as necrotic cells at 4.2 uM measured after 24 hrs by Annexin-V/FITC and propidium iodide staining based flow cytometry (reference value: 2.64 %); format: functional
# [19] = tested on: DU-145; assay: Induction of apoptosis in human DU145 cells assessed as live cells at 4.2 uM measured after 24 hrs by Annexin-V/FITC and propidium iodide staining based flow cytometry (reference value: 95.62 %); format: functional
# [20] = tested on: DU-145; assay: Induction of apoptosis in human DU145 cells assessed as late apoptotic cells at 7 uM measured after 24 hrs by Annexin-V/FITC and propidium iodide staining based flow cytometry (reference value: 1.49 %); format: functional
# [21] = tested on: DU-145; assay: Induction of apoptosis in human DU145 cells assessed as late apoptotic cells at 6 uM measured after 24 hrs by Annexin-V/FITC and propidium iodide staining based flow cytometry (reference value: 1.49 %); format: functional
# [22] = tested on: DU-145; assay: Induction of apoptosis in human DU145 cells assessed as late apoptotic cells at 3.6 uM measured after 24 hrs by Annexin-V/FITC and propidium iodide staining based flow cytometry (reference value: 1.49 %); format: functional
# [23] = tested on: DU-145; assay: Induction of apoptosis in human DU145 cells assessed as necrotic cells at 6 uM measured after 24 hrs by Annexin-V/FITC and propidium iodide staining based flow cytometry (reference value: 2.64 %); format: functional
# [24] = tested on: DU-145; assay: Cell cycle arrest in human DU145 cells assessed as accumulation at G0/G1 phase at 3.6 uM measured after 24 hrs by RNase A/propidium iodide staining based flow cytometry analysis (reference value: 51.75 %); format: functional
# [25] = tested on: DU-145; assay: Induction of apoptosis in human DU145 cells assessed as necrotic cells at 3.6 uM measured after 24 hrs by Annexin-V/FITC and propidium iodide staining based flow cytometry (reference value: 2.64 %); format: functional
# [26] = tested on: DU-145; assay: Induction of apoptosis in human DU145 cells assessed as early apoptotic cells at 3.6 uM measured after 24 hrs by Annexin-V/FITC and propidium iodide staining based flow cytometry (reference value: 0.25 %); format: functional
# [27] = tested on: DU-145; assay: Induction of apoptosis in human DU145 cells assessed as live cells at 3.6 uM measured after 24 hrs by Annexin-V/FITC and propidium iodide staining based flow cytometry (reference value: 95.62 %); format: functional
# [28] = tested on: DU-145; assay: Induction of apoptosis in human DU145 cells assessed as early apoptotic cells at 6 uM measured after 24 hrs by Annexin-V/FITC and propidium iodide staining based flow cytometry (reference value: 0.25 %); format: functional
# [29] = tested on: DU-145; assay: Induction of apoptosis in human DU145 cells assessed as live cells at 6 uM measured after 24 hrs by Annexin-V/FITC and propidium iodide staining based flow cytometry (reference value: 95.62 %); format: functional
Structure (SMILES),IC50 [1] [µM],IC50 [4] [µM],IC50 [6] [µM],IC50 [8] [µM],IC50 [10] [µM],other results
COc1cccc2c1C(=O)c1c(O)c3c(c(O)c1C2=O)C[C@@](O)(C(=O)CO)C[C@@H]3O[C@H]1C[C@H](N)[C@H](O)[C@H](C)O1 [DOXORUBICIN],7.9,3,4.8,5.3,3.8,Activity [2]: 10.77%; Activity [3]: 84.42%; Activity [5]: Active; Activity [7]: 2.41%; Activity [9]: 2.4%
C/C=C(\C)C(=O)O[C@@H]1[C@]2(OC(=O)C3CC3)C=C3C4=CC(=O)O[C@@H](c5ccoc5)[C@]4(C)CC[C@@H]3[C@@]3(C)[C@H](C[C@]1(C)[C@H]3[C@@H](OC(=O)C1CC1)C(=O)OC)O2,> 100,> 100,> 100,> 100,> 100,
C/C=C(\C)C(=O)O[C@@H]1[C@]2(OC(=O)C(C)C)C=C3C4=CC(=O)O[C@@H](c5ccoc5)[C@]4(C)CC[C@@H]3[C@@]3(C)[C@H](C[C@]1(C)[C@H]3[C@@H](OC(=O)C(C)C)C(=O)OC)O2,> 100,> 100,> 100,> 100,> 100,
C/C=C(\C)C(=O)O[C@@H]1[C@]2(OC(=O)CCCC)C=C3C4=CC(=O)O[C@@H](c5ccoc5)[C@]4(C)CC[C@@H]3[C@@]3(C)[C@H](C[C@]1(C)[C@H]3[C@@H](OC(=O)CCCC)C(=O)OC)O2,> 100,> 100,4.2,5.5,> 100,Activity [11]: 0.92%; Activity [12]: 3.39%; Activity [13]: 89.44%; Activity [14]: 0.86%; Activity [15]: 3.91%; Activity [16]: Dose-dependent effect; Activity [17]: 53.27%; Activity [18]: 2.45%; Activity [19]: 93.3%; Activity [20]: 5.73%
C/C=C(\C)C(=O)O[C@@H]1[C@]2(OC(=O)c3ccco3)C=C3C4=CC(=O)O[C@@H](c5ccoc5)[C@]4(C)CC[C@@H]3[C@@]3(C)[C@H](C[C@]1(C)[C@H]3[C@@H](OC(=O)c1ccco1)C(=O)OC)O2,> 100,> 100,17.8,7.6,> 100,
C/C=C(\C)C(=O)O[C@@H]1[C@]2(OC(=O)CC)C=C3C4=CC(=O)O[C@@H](c5ccoc5)[C@]4(C)CC[C@@H]3[C@@]3(C)[C@H](C[C@]1(C)[C@H]3[C@@H](O)C(=O)OC)O2,> 100,> 100,6.7,> 100,> 100,
C/C=C(\C)C(=O)O[C@H]1[C@]2(C)C[C@@H]3O[C@@]1(O)C=C1C4=CC(=O)O[C@@H](c5ccoc5)[C@]4(C)CC[C@@H]1[C@]3(C)[C@@H]2[C@@H](OC(C)=O)C(=O)OC,> 100,> 100,> 100,> 100,> 100,
C/C=C(\C)C(=O)O[C@@H]1[C@]2(OC(=O)CC)C=C3C4=CC(=O)O[C@@H](c5ccoc5)[C@]4(C)CC[C@@H]3[C@@]3(C)[C@H](C[C@]1(C)[C@H]3[C@@H](OC(=O)CC)C(=O)OC)O2,> 100,> 100,> 100,> 100,> 100,
C/C=C(\C)C(=O)O[C@H]1[C@]2(C)C[C@@H]3O[C@@]1(O)C=C1C4=CC(=O)O[C@@H](c5ccoc5)[C@]4(C)CC[C@@H]1[C@]3(C)[C@@H]2C(=O)C(=O)OC,> 100,> 100,> 100,44.4,> 100,
COC(=O)[C@H](O)[C@@H]1[C@@]2(C)C[C@@H]3O[C@@](O)(C=C4C5=CC(=O)O[C@@H](c6ccoc6)[C@]5(C)CC[C@@H]4[C@@]31C)[C@H]2O,> 100,> 100,> 100,9.6,> 100,
C/C=C(\C)C(=O)O[C@H]1[C@]2(C)C[C@@H]3O[C@@]1(O)C=C1C4=CC(=O)O[C@@H](c5ccoc5)[C@]4(C)CC[C@@H]1[C@]3(C)[C@@H]2[C@@H](O)C(=O)OC,> 100,> 100,7.7,8.1,> 100,
C/C=C(\C)C(=O)O[C@@H]1C(=O)/C=C2/C3=CC(=O)O[C@@H](c4ccoc4)[C@]3(C)CC[C@@H]2[C@@]2(C)C(=O)C[C@]1(C)[C@@H]2[C@@H](O)C(=O)OC,> 100,> 100,10.5,> 100,> 100,
C/C=C(\C)C(=O)O[C@@H]1[C@]2(OC(=O)C3CC3)C=C3C4=CC(=O)O[C@@H](c5ccoc5)[C@]4(C)CC[C@@H]3[C@@]3(C)[C@H](C[C@]1(C)[C@H]3[C@@H](O)C(=O)OC)O2,> 100,> 100,> 100,11.8,> 100,
CCOC(=O)[C@H](O)[C@@H]1[C@@]2(C)C[C@@H]3O[C@@](O)(C=C4C5=CC(=O)O[C@@H](c6ccoc6)[C@]5(C)CC[C@@H]4[C@@]31C)[C@H]2O,> 100,> 100,3.6,16.3,> 100,Activity [21]: 6.45%; Activity [22]: 5.39%; Activity [23]: 3.42%; Activity [24]: 47.2%; Activity [25]: 2.8%; Activity [16]: Dose-dependent effect; Activity [26]: 0.84%; Activity [27]: 90.97%; Activity [28]: 0.86%; Activity [29]: 89.27%
